Laboratory results published in patent publication US10800778B2 (Entasis Therapeutics Limited, priority 2016, dated 2020).
Structures can show the parent of a compound that is named as a salt.

What was measured:
[1] = molecular target: TEM-1 (Class A beta-lactamase) (Escherichia coli, UniProt P62593); assay: Inhibition of beta-lactamase enzymes (nitrocefin hydrolysis), TEM-1; format: biochemical; settings: read-out: Class A TEM-1 60 min IC50, nitrocefin 100 μM
Procedure: (§1) A buffer consisting of 0.1 M sodium phosphate (pH 7.0), 10 mM NaHCO3, and 0.005% Triton X-100 was used for all enzymes. The chromogenic substrate nitrocefin (SynGene, Bangalore, India) was used at 100 μM. Enzyme activity was monitored by the 490 nm absorbance increase upon nitrocefin hydrolysis. Assays were performed in clear polystyrene 384-well plates (Greiner Bio-One, Monroe, N.C.). Absorbance was measured for 1 hour at 30-s intervals using a Spectramax absorbance plate reader (Molecular Devices, Sunnyvale, Calif.). Measurement of beta-lactamase inhibition by INHIBITOR employed serial 3-fold dilutions of the inhibitor in assay buffer, ranging from 100 μM to 62.7 pM. A background absorbance progress curve for a control lacking enzyme and inhibitor was subtracted from each progress curve.
(§2) The complete set of progress curves for one enzyme with all inhibitor concentrations was subjected to numerical integration with the program Kintek Global Kinetic Explorer (Kintek Corp, Snowshoe Pa.) to obtain a best-fit to the mechanism shown in Scheme 10.
(§3) where E, S, ES, P, I, and EI are the concentrations of the enzyme, nitrocefin, the enzyme-nitrocefin complex, the nitrocefin hydrolysis product, INHIBITOR, and the enzyme-INHIBITOR complex respectively. […] The values of k+2, k+3, and k−3 were fit. Concentration series offsets of the absorbance measurements were used to correct for slight absorbance baseline differences between wells. The parameter k+3 is equivalent to the second order rate constant kinact/Ki. In some cases, the inhibition was in rapid equilibrium on the experimental time scale, so that only the ratio k−3/k+3=Ki could be determined. Although k−3 represents reversal of inhibitor binding in Scheme 10, hydrolysis of the enzyme-inhibitor complex could not be excluded based on kinetic measurements.
(§4) Best-fit absorbance values from the above procedure at each time point for each compound concentration were exported to Excel.
(§5) where A is the best-fit absorbance without inhibitor and Ainhib is the best-fit absorbance in the presence of the inhibitor.
(§6) where [I] is the inhibitor concentration and n is the Hill coefficient. The Excel add-in XLfit (ID Business Solutions) was used for nonlinear regression.

[2] = molecular target: OXA-48 (Class D beta-lactamase) (Klebsiella pneumoniae, UniProt Q6XEC0); assay: Inhibition of beta-lactamase enzymes (nitrocefin hydrolysis), OXA-48; format: biochemical; settings: read-out: Class D OXA-48 60 min IC50, nitrocefin 100 μM
Procedure: as §1, §2, §3, §4, §5, §6

Sequence of OXA-48 (Class D beta-lactamase) (Q6XEC0 whole entry, looked up, species assumed): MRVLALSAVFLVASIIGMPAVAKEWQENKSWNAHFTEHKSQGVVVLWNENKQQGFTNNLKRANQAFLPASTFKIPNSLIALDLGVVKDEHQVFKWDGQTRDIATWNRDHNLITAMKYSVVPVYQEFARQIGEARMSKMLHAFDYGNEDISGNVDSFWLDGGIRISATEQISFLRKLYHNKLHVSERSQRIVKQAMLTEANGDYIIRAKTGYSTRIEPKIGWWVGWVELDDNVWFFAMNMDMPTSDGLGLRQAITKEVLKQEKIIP
Sequence of TEM-1 (Class A beta-lactamase) (P62593 whole entry, looked up, species assumed): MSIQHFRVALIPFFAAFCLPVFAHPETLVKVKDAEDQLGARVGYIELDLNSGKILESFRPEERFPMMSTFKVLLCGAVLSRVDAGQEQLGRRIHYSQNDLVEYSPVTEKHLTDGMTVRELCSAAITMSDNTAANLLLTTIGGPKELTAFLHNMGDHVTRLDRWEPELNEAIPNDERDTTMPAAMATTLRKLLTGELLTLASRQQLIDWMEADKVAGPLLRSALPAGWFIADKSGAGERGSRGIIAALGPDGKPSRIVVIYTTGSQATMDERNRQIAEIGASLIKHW

| SMILES | IC50 [1] | IC50 [2] |
| --- | --- | --- |
| CC1=C[C@@H]2CN(C(=O)N2OC(F)C(=O)O)[C@@H]1C(N)=O (mixture of isomers) [Example 5, {[(2S,5R)-2-carbamoyl-3-methyl-7-oxo-1,6-diazabicyclo[3.2.1]oct-3-en-6-yl]oxy}(fluoro)acetic acid lithium salt (mixture of diastereomers)] | 4.4 nM | 17 nM |
| CC1=C[C@@H]2CN(C(=O)N2OC(C)(F)C(=O)O)[C@@H]1C(N)=O (mixture of isomers) [Example 11, 2-{[(2S,5R)-2-carbamoyl-3-methyl-7-oxo-1,6-diazabicyclo[3.2.1]oct-3-en-6-yl]oxy}-2-fluoropropanoic acid lithium salt (mixture of diastereomers)] | 230 nM | 22000 nM |
| NC(=O)[C@@H]1C(C2CC2)=C[C@@H]2CN1C(=O)N2OC(F)C(=O)O (stereo in doubt) [Example 42, (2R)-2-(((2S,5R)-2-carbamoyl-3-cyclopropyl-7-oxo-1,6-diazabicyclo[3.2.1]oct-3-en-6-yl)oxy)-2-fluoroacetic acid lithium salt] | 24 nM | 5.2 nM |
| NC(=O)[C@@H]1CC[C@@H]2CN1C(=O)N2O[C@H](F)C(=O)O [Comparator 98, reference compound] | 1.3 nM | 2600 nM |
| O=C(O)C(F)ON1C(=O)N2C[C@H]1CC[C@H]2C(=O)NC1CCNCC1 (stereo partly drawn) [Comparator 99, reference compound] | 30 nM | 82000 nM |
| CC1=C[C@@H]2CN(C(=O)N2OC(F)(F)C(=O)O)[C@@H]1C(N)=O [Example 8, {[(2S,5R)-2-carbamoyl-3-methyl-7-oxo-1,6-diazabicyclo[3.2.1]oct-3-en-6-yl]oxy}(difluoro)acetic acid lithium salt] | 1.5 nM | 14 nM |
| CC1=C[C@@H]2CN(C(=O)N2OCC(=O)O)[C@@H]1C(N)=O [Example 10, {[(2S,5R)-2-carbamoyl-3-methyl-7-oxo-1,6-diazabicyclo[3.2.1]oct-3-en-6-yl]oxy}acetic acid lithium salt] | 430 nM | 51 nM |
| CC(=O)NNC(=O)[C@@H]1C(C)=C[C@@H]2CN1C(=O)N2OC(F)C(=O)O (stereo partly drawn) [Example 27, 2-(((2S,5R)-2-(2-acetylhydrazinecarbonyl)-3-methyl-7-oxo-1,6-diazabicyclo[3.2.1]oct-3-en-6-yl)oxy)-2-fluoroacetic acid lithium salt] | 47 nM | 18 nM |
| CC1=C[C@@H]2CN(C(=O)N2OC(F)C(=O)O)[C@@H]1C(=O)NCc1cnccn1 (stereo partly drawn) [Example 30, 2-fluoro-2-(((2S,5R)-3-methyl-7-oxo-2-((pyrazin-2-ylmethyl)carbamoyl)-1,6-diazabicyclo[3.2.1]oct-3-en-6-yl)oxy)acetic acid lithium salt] | 81 nM | 140 nM |
| NC(=O)[C@@H]1C(C2CC2)=C[C@@H]2CN1C(=O)N2O[C@H](F)C(=O)O [Example 41, (2R)-2-(((2S,5R)-2-carbamoyl-3-cyclopropyl-7-oxo-1,6-diazabicyclo[3.2.1]oct-3-en-6-yl)oxy)-2-fluoroacetic acid lithium salt] | 3.5 nM | 6.4 nM |
| CC1=C[C@@H]2CN(C(=O)N2OC(F)C(=O)O)[C@@H]1c1nnc(C(N)=O)o1 (stereo partly drawn) [Example 55, 2-[[(2S,5R)-2-(5-carbamoyl-1,3,4-oxadiazol-2-yl)-3-methyl-7-oxo-1,6-diazabicyclo[3.2.1]oct-3-en-6-yl]oxy]-2-fluoro-acetic acid lithium salt] | 24 nM | 7.3 nM |
| CC1=C[C@@H]2CN(C(=O)N2O[C@@H](F)C(=O)O)[C@@H]1C(=O)NOCCS(N)(=O)=O [Example 56, (2S)-2-fluoro-2-[[(2S,5R)-3-methyl-7-oxo-2-(2-sulfamoylethoxycarbamoyl)-1,6-diazabicyclo[3.2.1]oct-3-en-6-yl]oxy]acetic acid lithium salt] | 93 nM | 220 nM |
| CC1=C[C@@H]2CN(C(=O)N2O[C@@H](F)C(=O)O)[C@@H]1C(=O)NCCS(N)(=O)=O [Example 57, (2S)-2-fluoro-2-[[(2S,5R)-3-methyl-7-oxo-2-(2-sulfamoylethylcarbamoyl)-1,6-diazabicyclo[3.2.1]oct-3-en-6-yl]oxy]acetic acid lithium salt] | 57 nM | 410 nM |
| CC1=C[C@@H]2CN(C(=O)N2O[C@@H](F)C(=O)O)[C@@H]1C(=O)NOC[C@@H]1CC(F)(F)CN1 [Example 63, (2S)-2-(((2S,5R)-2-((((S)-4,4-difluoropyrrolidin-2-yl)methoxy)carbamoyl)-3-methyl-7-oxo-1,6-diazabicyclo[3.2.1]oct-3-en-6-yl)oxy)-2-fluoroacetic acid TFA salt] | 110 nM | 230 nM |
| CC1=C[C@@H]2CN(C(=O)N2O[C@@H](F)C(=O)O)[C@@H]1C(=O)NC1COC1 [Example 66, (2S)-2-fluoro-2-[[(2S,5R)-3-methyl-2-(oxetan-3-ylcarbamoyl)-7-oxo-1,6-diazabicyclo[3.2.1]oct-3-en-6-yl]oxy]acetic acid lithium salt] | 660 nM | 12 nM |
| CC1=C[C@@H]2CN(C(=O)N2O[C@@H](F)C(=O)O)[C@@H]1C(=O)NCCNS(C)(=O)=O [Example 67, (2S)-2-fluoro-2-[[(2S,5R)-2-[2-(methanesulfonamido)ethylcarbamoyl]-3-methyl-7-oxo-1,6-diazabicyclo[3.2.1]oct-3-en-6-yl]oxy]acetic acid lithium salt] | 64 nM | 340 nM |
| CC1=C[C@@H]2CN(C(=O)N2O[C@@H](F)C(=O)O)[C@@H]1C(=O)NCc1ncco1 [Example 68, (2S)-2-fluoro-2-[[(2S,5R)-3-methyl-2-(oxazol-2-ylmethylcarbamoyl)-7-oxo-1,6-diazabicyclo[3.2.1]oct-3-en-6-yl]oxy]lacetic acid lithium salt] | 310 nM | 78 nM |
| CC1=C[C@@H]2CN(C(=O)N2O[C@@H](F)C(=O)O)[C@@H]1C(=O)NCc1cnccn1 [Example 69, (2S)-2-fluoro-2-[[(2S,5R)-3-methyl-7-oxo-2-(pyrazin-2-ylmethyl-carbamoyl)-1,6-diazabicyclo[3.2.1]oct-3-en-6-yl]oxy]acetic acid lithium salt] | 180 nM | 110 nM |
| CC1=C[C@@H]2CN(C(=O)N2O[C@@H](F)C(=O)O)[C@@H]1C(=O)NOCC1CC1 [Example 70, (2S)-2-[[(2S,5R)-2-(cyclopropylmethoxycarbamoyl)-3-methyl-7-oxo-1,6-diazabicyclo[3.2.1]oct-3-en-6-yl]oxy]-2-fluoro-acetic acid lithium salt] | 26 nM | 87 nM |
| CC1=C[C@@H]2CN(C(=O)N2O[C@@H](F)C(=O)O)[C@@H]1C(=O)NCCC(N)=O [Example 71, (2S)-2-[[(2S,5R)-2-[(3-amino-3-oxo-propyl)carbamoyl]-3-methyl-7-oxo-1,6-diazabicyclo[3.2.1]oct-3-en-6-yl]oxy]-2-fluoro-acetic acid lithium salt] | 110 nM | 75 nM |
| CC1=C[C@@H]2CN(C(=O)N2O[C@@H](F)C(=O)O)[C@@H]1C(=O)NOC[C@@H]1CCC(=O)N1 [Example 72, (2S)-2-fluoro-2-[[(2S,5R)-3-methyl-7-oxo-2-[(5-oxopyrrolidin-2-yl)methoxycarbamoyl]-1,6-diazabicyclo[3.2.1]oct-3-en-6-yl]oxy]acetic acid lithium salt] | 77 nM | 110 nM |
| CC1=C[C@@H]2CN(C(=O)N2O[C@@H](F)C(=O)O)[C@@H]1C(=O)NCC[C@@H]1CCC(=O)N1 [Example 73, (2S)-2-fluoro-2-[[(2S,5R)-3-methyl-7-oxo-2-[2-(5-oxopyrrolidin-2-yl)ethylcarbamoyl]-1,6-diazabicyclo[3.2.1]oct-3-en-6-yl]oxy]acetic acid lithium salt] | 730 nM | 530 nM |
| CC1=C[C@@H]2CN(C(=O)N2O[C@@H](F)C(=O)O)[C@@H]1C(=O)NCCCS(N)(=O)=O [Example 74, (2S)-2-fluoro-2-[[(2S,5R)-3-methyl-7-oxo-2-(3-sulfamoylpropylcarbamoyl)-1,6-diazabicyclo[3.2.1]oct-3-en-6-yl]oxy]acetic acid lithium salt] | 280 nM | 590 nM |
| CC1=C[C@@H]2CN(C(=O)N2O[C@@H](F)C(=O)O)[C@@H]1CNC(=O)OC(C)(C)C [Example 76, (2S)-2-[[(2S,5R)-2-[tert-butoxycarbonylamino)methyl]-3-methyl-7-oxo-1,6-diazabicyclo[3.2.1]oct-3-en-6-yl]oxy]-2-fluoro-acetic acid lithium salt] | 940 nM | 220 nM |
